Results published in article PMC3700763, “First human dose-escalation study with remogliflozin etabonate, a selective inhibitor of the sodium-glucose transporter 2 (SGLT2), in healthy subjects and in subjects with type 2 diabetes mellitus” (BMC Pharmacology & Toxicology, 2013).
Read-outs that look alike come from different tables or passages of the source. Marks after values point to notes of the source that are not given here.

Experiments:
[1] = Plasma pharmacokinetics, T2DM subjects; format: in vivo, human; conditions: human, plasma analyte; for AUC(0-inf): read-out: AUC(0–∞) Geometric mean (CV%); for Cmax: read-out: Cmax Geometric mean (CV%); for Tmax: read-out: Tmax Median; for half-life: read-out: T½ Geometric mean (CV%) (converted)
Experimental: Six subjects with T2DM received two doses of remogliflozin etabonate and a placebo dose, in a randomized, dose escalating, crossover design, along with an oral glucose load on three study sessions separated by 7–14 days. Full PK and safety profiles were measured on Day 1 of each dosing period. The doses selected for this portion of the study, 50 mg and 500 mg, were based on data obtained in Part A. In each dosing period, subjects were assigned to active vs placebo in a 2:1 ratio. On each dosing day, a series of 2.0 mL blood samples were collected at pre-dose and 10, 20, 30 and 45 min, and 1, 1.25, 1.5, 2, 2.5, 3, 4, 6, 8, 12, 16, and 24 h post-dose for the determination of remogliflozin etabonate, remogliflozin and GSK279782 in plasma by using high-performance liquid chromatography with tandem mass spectrometry (MS/MS) as described. Non-compartmental PK analysis of plasma concentration–time data was performed using WinNonlin Version 4.1 (Pharsight Corporation, Mountainview, CA, USA). The Cmax and Tmax were obtained directly from the data. Areas under the plasma concentration–time curves from time zero to the last quantifiable time point (AUC[0–last]) and extrapolated to infinity (AUC[0–∞]) were calculated using the log-linear trapezoidal method. The terminal plasma elimination rate-constant (λz) was estimated from log-linear regression analysis of the terminal phase of the plasma concentration–time curve, and the T½ was calculated as T½ = ln2/λz. Ratios of AUC(0–∞) remogliflozin to AUC(0–last) remogliflozin etabonate were calculated including molecular weight corrections.

[2] = biological target: T1, SGLT2 (Homo sapiens, UniProt P31639); experiment: 24-h urine glucose excretion, T2DM subjects; format: in vivo; conditions: mean (SD)
T1 construct: from tissue; host or cells: kidney (proximal tubule) of living human subjects: healthy volunteers and T2DM patients
T1 sequence (P31639 1-672): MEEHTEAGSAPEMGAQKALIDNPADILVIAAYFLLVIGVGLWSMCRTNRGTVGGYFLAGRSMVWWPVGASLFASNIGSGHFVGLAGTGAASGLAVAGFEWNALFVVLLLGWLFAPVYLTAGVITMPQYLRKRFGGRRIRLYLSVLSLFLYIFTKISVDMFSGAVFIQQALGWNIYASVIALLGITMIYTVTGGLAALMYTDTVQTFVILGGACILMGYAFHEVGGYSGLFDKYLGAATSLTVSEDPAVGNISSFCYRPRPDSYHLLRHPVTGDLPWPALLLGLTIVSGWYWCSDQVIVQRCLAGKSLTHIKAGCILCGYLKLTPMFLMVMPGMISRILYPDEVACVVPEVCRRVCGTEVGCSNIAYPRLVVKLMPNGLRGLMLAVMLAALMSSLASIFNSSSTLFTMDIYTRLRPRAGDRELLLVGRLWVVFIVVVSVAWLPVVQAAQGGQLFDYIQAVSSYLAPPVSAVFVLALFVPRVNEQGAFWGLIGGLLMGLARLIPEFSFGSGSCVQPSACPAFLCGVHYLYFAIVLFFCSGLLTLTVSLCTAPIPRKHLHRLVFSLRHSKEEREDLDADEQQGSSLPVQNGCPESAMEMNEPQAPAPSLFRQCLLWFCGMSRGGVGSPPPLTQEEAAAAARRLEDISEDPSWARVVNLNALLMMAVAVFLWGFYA
Experimental: Urine samples were collected at pre-dose, and over a series of intervals (0–2, 2–4, 4–6, 6–8, 8–12 and 12–24 h post-dose) for the analysis of creatinine, glucose and electrolytes (Na, K and Cl). All fluid intake was recorded, as well as urine volume, over the 24 hours before and after dosing in each treatment period. Urine was tested for protein on the first morning void of day -1 and 24 h after dosing.
The percentage of filtered glucose excreted in the urine for each individual time period was calculated as the amount of glucose excreted during that time period divided by (CLCR × PG × time interval length), where CLCR is the creatinine clearance for the time interval, PG is the plasma glucose concentration closest to the midpoint of the time interval, and the time interval is the period (min) of urine collection (CLCR × PG represents the glucose filtered load). For the 24-h period, the percentage of filtered glucose excreted was calculated as the amount of glucose excreted over 24 h divided by the sum over the individual time intervals of (CLCR × PG × time interval length).

[3] = mice; cited from earlier work
[4] = Urine beta-2 microglobulin (exploratory renal toxicity biomarker), T2DM subjects; format: in vivo, human; conditions: one T2DM subject
Experimental: Urine beta-2 microglobulin levels, an exploratory biomarker that was measured as a potential early indicator of renal toxicity, were within the normal range at both baseline and after treatment for all subjects except for two subjects with diabetes.

[5] = remogliflozin etabonate 50 mg oral dose
[6] = remogliflozin etabonate 500 mg oral dose (prodrug n = 2)
[7] = remogliflozin etabonate 500 mg oral dose

CCOC(=O)OC[C@H]1O[C@@H](Oc2nn(C(C)C)c(C)c2Cc2ccc(OC(C)C)cc2)[C@H](O)[C@@H](O)[C@@H]1O [Remogliflozin etabonate, remogliflozin etabonate] gave an AUC(0-inf) [1, 5] of 8.91 ng·h/mL, a Cmax [1, 5] of 9.56 ng/mL and a Tmax [1, 5] of 34.8 min. It also gave a half-life [1, 5] of 36.6 min, an AUC(0-inf) [1, 6] of 91.9 ng·h/mL and a half-life [1, 6] of 49.2 min. The Cmax [1, 7] was 83.9 ng/mL, the Tmax [1, 7] was 45 min and the Urinary glucose excretion ([2]; 50 mg single dose) was 384 (210) mmol. The “Filtered glucose excreted in urine” value ([2]; 50 mg single dose, n = 5) was 15.9 (5.9)^c %, the “Filtered glucose excreted in urine” value ([2]; 500 mg single dose) was 21.6 (9.1) % and the Urinary glucose excretion ([2]; 500 mg single dose) was 642 (256) mmol. The Urinary glucose excretion [3] was “concentration-dependent increase”, the “Time for drug-related beta-2 microglobulin elevation to return to normal” value ([4]; 500 mg) was at most 4 days and the “Urine beta-2 microglobulin, elevation” value ([4]; 11 days after 500 mg, attributed by investigator to other concomitant disease) was 2.5 µg/mL. For the same compound, the “Urine beta-2 microglobulin, drug-related elevation” value ([4]; day 1 after 500 mg, normal <0.3 μg/mL) was 1.62 µg/mL.
